We go through four molecules from paper PMC3958311 (EMBO Molecular Medicine, 2014).

The test system of one assay is M. tuberculosis NTB1. Type of assay: cell-based, Mycobacterium tuberculosis.
Another assay deals with M. tuberculosis H37Rv. The following applies: stated in the Introduction; ref Makarov et al, 2009; cited from earlier work.

Converted amounts (≈) assume the structure as drawn. “And” between values parts separate entries of the source, which are not always exact repeats. Equal entries are not always repeated.

Regarding `CO[C@H]1/C=C/O[C@@]2(C)Oc3c(C)c(O)c4c(O)c(c(/C=N/N5CCN(C)CC5)c(O)c4c3C2=O)NC(=O)/C(C)=C\C=C\[C@H](C)[C@H](O)[C@@H](C)[C@@H](O)[C@@H](C)[C@H](OC(C)=O)[C@@H]1C` [RIF, rifampicin], the MIC99 against M. tuberculosis NTB1 is 0.001 µg/mL (≈ 0.00122 µM).
In turn, moxifloxicin [MXF] displayed an MIC99 with M. tuberculosis NTB1 of 0.03 µg/mL.
Take `O=c1nc(N2CCN(CC3CCCCC3)CC2)sc2c([N+](=O)[O-])cc(C(F)(F)F)cc12` [PBTZ169]: in the assay on M. tuberculosis NTB1, the MIC99 is more than 100 µg/mL and the “fold increased resistance conferred by the Cys387Ser mutation in DprE1” value is > 10 000 fold.
As to `C[C@H]1COC2(CCN(c3nc(=O)c4cc(C(F)(F)F)cc([N+](=O)[O-])c4s3)CC2)O1` [BTZ043, 2-[(2S)-2-methyl-1,4-dioxa-8-azaspiro[4.5]dec-8-yl]-8-nitro-6-(trifluoromethyl)-4H-1,3-benzothia-zin-4-one], the MIC in the assay with M. tuberculosis H37Rv is 1 ng/ml and 2.3 nM. In addition, in the assay on M. tuberculosis NTB1, the MIC99 turned out to be 25 µg/mL (≈ 58 µM) and the “fold increased resistance conferred by the Cys387Ser mutation in DprE1” value was > 10 000 fold.
